Source: ChEMBL document CHEMBL5113520, “From a Cone Snail Toxin to a Competitive MC4R Antagonist” (J Med Chem, 2022)
The source made the active and inactive calls. The calls are words filed in the database; no cut-off is given here. Where a SMILES comes first, the peptide text is derived from it. Bridges are numbered along the chain shown (N, C = ends).

What was measured:
[1] = molecular target: T1, Melanocortin receptor 4 (Homo sapiens, UniProt P32245); experiment: Displacement of [125I]-NDP-alpha-MSH from human MC4R expressed in CHO cells by Topcount beta counter analysis; type: cell-based
[2] = molecular target: Melanocortin receptor 5 (Homo sapiens, UniProt P33032); experiment: Displacement of [125I]-NDP-alpha-MSH from human MC5R expressed in CHO cells by Topcount beta counter analysis; type: cell-based
[3] = molecular target: Melanocyte-stimulating hormone receptor (Homo sapiens, UniProt Q01726); experiment: Displacement of [125I]-NDP-alpha-MSH from human MC1R expressed in CHO cells by Topcount beta counter analysis; type: cell-based
[4] = molecular target: Melanocortin receptor 3 (Homo sapiens, UniProt P41968); experiment: Displacement of [125I]-NDP-alpha-MSH from human MC3R expressed in HEK293 cells by Topcount beta counter analysis; type: cell-based
[5] = molecular target: T1, Melanocortin receptor 4; experiment: Antagonist activity at human MC4R in HEK293SL cells assessed as Gs activation at 30 uM incubated for 30 mins in presence of alpha-MSH by BRET assay; type: functional, cell-based; details: filed as antagonist
[6] = molecular target: T1, Melanocortin receptor 4; experiment: Antagonist activity at human MC4R in HEK293SL cells assessed as Gs activation incubated for 30 mins in presence of NDP-alpha-MSH by BRET assay; type: functional, cell-based; details: filed as antagonist
[7] = molecular target: T1, Melanocortin receptor 4; experiment: Antagonist activity at human MC4R in HEK293SL cells assessed as beta-arrestin2 activation incubated for 30 mins in presence of alpha-MSH by BRET assay; type: functional, cell-based; details: filed as antagonist
[8] = species: Homo sapiens; experiment: Selectivity ratio of Ki for human MC3R expressed in HEK293 cells to Ki for human MC4R expressed in CHO cells; type: cell-based
[9] = molecular target: T1, Melanocortin receptor 4; experiment: Antagonist activity at human MC4R in HEK293SL cells assessed as beta-arrestin2 activation incubated for 30 mins in presence of NDP-alpha-MSH by BRET assay; type: functional, cell-based; details: filed as antagonist
[10] = molecular target: T1, Melanocortin receptor 4; experiment: Antagonist activity at human MC4R in HEK293SL cells assessed as Gs activation incubated for 30 mins in presence of alpha-MSH by BRET assay; type: functional, cell-based; details: filed as antagonist
[11] = molecular target: T1, Melanocortin receptor 4; experiment: Antagonist activity at human MC4R in HEK293SL cells assessed as G15 activation incubated for 30 mins in presence of NDP-alpha-MSH by BRET assay; type: functional, cell-based; details: filed as antagonist
[12] = molecular target: T1, Melanocortin receptor 4; experiment: Antagonist activity at human MC4R in HEK293SL cells assessed as G15 activation incubated for 30 mins in presence of alpha-MSH by BRET assay; type: functional, cell-based; details: filed as antagonist
[13] = molecular target: T2, Type-1 angiotensin II receptor (Homo sapiens) (UniProt P30556); experiment: Inhibition of human AT1R expressed in CHO cells at 50 uM by Topcount beta counter analysis relative to control; type: cell-based
T2 sequence (whole entry): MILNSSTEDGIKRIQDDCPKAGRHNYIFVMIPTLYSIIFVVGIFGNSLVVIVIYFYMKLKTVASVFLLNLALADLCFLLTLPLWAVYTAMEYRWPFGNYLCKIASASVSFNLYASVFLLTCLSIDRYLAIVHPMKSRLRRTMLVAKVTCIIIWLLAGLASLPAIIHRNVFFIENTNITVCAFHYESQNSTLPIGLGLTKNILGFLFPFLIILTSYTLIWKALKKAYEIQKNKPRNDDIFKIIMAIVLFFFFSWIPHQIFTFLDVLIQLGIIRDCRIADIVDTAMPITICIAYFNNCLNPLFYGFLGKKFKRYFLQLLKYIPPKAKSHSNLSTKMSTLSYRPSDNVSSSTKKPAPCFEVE

[14] = species: Homo sapiens; experiment: Selectivity ratio of Ki for human MC1R expressed in CHO cells to Ki for human MC4R expressed in CHO cells; type: cell-based
[15] = species: Homo sapiens; experiment: Selectivity ratio of Ki for human […] expressed in CHO cells to Ki for human MC4R expressed in CHO cells; type: cell-based

Sequence of Melanocortin receptor 5 (P33032 whole entry): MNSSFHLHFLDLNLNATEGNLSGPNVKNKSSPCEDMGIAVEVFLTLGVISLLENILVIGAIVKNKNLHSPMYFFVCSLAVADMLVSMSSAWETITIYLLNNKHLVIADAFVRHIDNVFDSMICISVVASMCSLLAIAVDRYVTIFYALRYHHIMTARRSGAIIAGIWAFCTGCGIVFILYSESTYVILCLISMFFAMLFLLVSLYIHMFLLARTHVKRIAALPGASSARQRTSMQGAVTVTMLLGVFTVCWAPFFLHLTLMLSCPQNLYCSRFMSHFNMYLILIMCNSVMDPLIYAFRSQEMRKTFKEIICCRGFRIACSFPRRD
Sequence of Melanocortin receptor 3 (P41968 whole entry): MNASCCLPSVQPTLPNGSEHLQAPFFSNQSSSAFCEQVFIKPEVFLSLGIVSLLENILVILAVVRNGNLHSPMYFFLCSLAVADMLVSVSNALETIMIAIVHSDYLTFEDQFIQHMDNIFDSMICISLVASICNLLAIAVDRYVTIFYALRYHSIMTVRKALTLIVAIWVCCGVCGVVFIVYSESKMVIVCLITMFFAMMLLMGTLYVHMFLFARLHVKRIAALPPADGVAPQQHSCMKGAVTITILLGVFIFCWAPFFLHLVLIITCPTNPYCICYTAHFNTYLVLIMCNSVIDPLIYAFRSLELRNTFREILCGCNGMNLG
Sequence of Melanocyte-stimulating hormone receptor (Q01726 whole entry): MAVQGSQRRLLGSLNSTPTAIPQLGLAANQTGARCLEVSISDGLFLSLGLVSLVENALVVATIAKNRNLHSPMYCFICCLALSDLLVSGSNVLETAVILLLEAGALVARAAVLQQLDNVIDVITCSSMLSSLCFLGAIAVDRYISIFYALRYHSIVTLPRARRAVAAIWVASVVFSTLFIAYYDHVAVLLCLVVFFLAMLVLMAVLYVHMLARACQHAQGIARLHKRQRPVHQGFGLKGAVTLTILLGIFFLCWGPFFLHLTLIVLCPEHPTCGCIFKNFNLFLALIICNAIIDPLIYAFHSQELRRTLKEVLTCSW
T1 sequence (P32245 whole entry): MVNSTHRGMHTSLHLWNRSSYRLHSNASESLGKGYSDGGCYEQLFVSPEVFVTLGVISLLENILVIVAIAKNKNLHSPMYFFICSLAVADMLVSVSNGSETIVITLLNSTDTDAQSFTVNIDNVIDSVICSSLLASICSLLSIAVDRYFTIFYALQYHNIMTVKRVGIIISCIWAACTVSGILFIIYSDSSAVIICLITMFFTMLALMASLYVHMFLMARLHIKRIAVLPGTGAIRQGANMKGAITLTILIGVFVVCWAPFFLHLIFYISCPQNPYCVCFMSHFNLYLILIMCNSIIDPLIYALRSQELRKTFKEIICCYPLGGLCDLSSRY

Row | Compound | Ki ([1]; read-out: Ki) | Ki ([1]; read-out: pKi (converted)) | Ki ([2]; read-out: Ki) | Ki ([2]; read-out: pKi (converted)) | Ki ([3]; read-out: Ki) | Ki ([3]; read-out: pKi (converted)) | Ki ([4]; read-out: Ki) | Ki ([4]; read-out: pKi (converted)) | Activity [5] | Kb [6] | Kb [7] | Ratio Ki [8] | Kb [9] | Kb [10] | Kb [11] | Kb [12] | inhibition [13] | Ratio Ki [14] | Ratio Ki [15]
1 | CC(C)C[C@H](NC(=O)[C@H](CCCCN)NC(=O)[C@H](Cc1ccccc1)NC(=O)[C@H](CCC(N)=O)NC(=O)[C@@H]1CSSC[C@H](NC(=O)[C@H](CCC(N)=O)NC(=O)[C@@H]2CSSC[C@H](NC(=O)[C@H](Cc3ccc(O)cc3)NC(=O)[C@H](Cc3c[nH]cn3)NC(=O)[C@H](Cc3ccccc3)NC(=O)[C@@H](N)CC(C)C)C(=O)N[C@@H](CCC(N)=O)C(=O)N2)C(=O)N2CCC[C@H]2C(=O)N2CCC[C@H]2C(=O)NCC(=O)N[C@@H](Cc2ccccc2)C(=O)N[C@@H](CCCCN)C(=O)NCC(=O)N[C@@H](CCCCN)C(=O)N[C@@H](Cc2ccccc2)C(=O)N1)C(=O)N[C@@H](CCCNC(=N)N)C(=O)N1CCC[C@H]1C(=O)N1CCC[C@H]1C(=O)O (H-LFHYCQCQCPPGFKGKFCQFKLRPP-OH; disulfide 5-7, 9-18) | 0.045 µM | 0.0417 µM | 0.03 µM | 0.0288 µM | 0.53 µM | 0.513 µM | 0.083 µM | 0.0692 µM |  |  |  |  |  |  |  |  |  |  | 
2 | CC(C)C[C@H](NC(=O)[C@H](CCCCN)NC(=O)[C@H](Cc1ccccc1)NC(=O)[C@H](CCC(N)=O)NC(=O)[C@@H]1CSSC[C@@H]2NC(=O)[C@H](CCC(N)=O)NC(=O)[C@@H](NC(=O)[C@H](Cc3ccc(O)cc3)NC(=O)[C@H](Cc3c[nH]cn3)NC(=O)[C@H](Cc3ccccc3)NC(=O)[C@@H](N)CC(C)C)CSSC[C@H](NC(=O)[C@H](CCC(N)=O)NC2=O)C(=O)N2CCC[C@H]2C(=O)N2CCC[C@H]2C(=O)NCC(=O)N[C@@H](Cc2ccccc2)C(=O)N[C@@H](CCCCN)C(=O)NCC(=O)N[C@@H](CCCCN)C(=O)N[C@@H](Cc2ccccc2)C(=O)N1)C(=O)N[C@@H](CCCNC(=N)N)C(=O)N1CCC[C@H]1C(=O)N1CCC[C@H]1C(=O)O (H-LFHYCQCQCPPGFKGKFCQFKLRPP-OH; disulfide 5-9, 7-18) | 0.049 µM | 0.0447 µM | 0.053 µM | 0.0339 µM | 0.549 µM | 0.617 µM | 0.09 µM |  |  |  |  |  |  |  |  |  |  |  | 
3 | CC(C)C[C@H](NC(=O)[C@H](CCCCN)NC(=O)[C@H](Cc1ccccc1)NC(=O)[C@H](CCC(N)=O)NC(=O)[C@@H]1CSSC[C@H](NC(=O)[C@H](Cc2ccc(O)cc2)NC(=O)[C@H](Cc2c[nH]cn2)NC(=O)[C@H](Cc2ccccc2)NC(=O)[C@@H](N)CC(C)C)C(=O)N[C@@H](CCC(N)=O)C(=O)N[C@H]2CSSC[C@H](NC(=O)[C@H](CCC(N)=O)NC2=O)C(=O)N2CCC[C@H]2C(=O)N2CCC[C@H]2C(=O)NCC(=O)N[C@@H](Cc2ccccc2)C(=O)N[C@@H](CCCCN)C(=O)NCC(=O)N[C@@H](CCCCN)C(=O)N[C@@H](Cc2ccccc2)C(=O)N1)C(=O)N[C@@H](CCCNC(=N)N)C(=O)N1CCC[C@H]1C(=O)N1CCC[C@H]1C(=O)O (H-LFHYCQCQCPPGFKGKFCQFKLRPP-OH; disulfide 5-18, 7-9) | 0.048 µM | 0.0437 µM | 0.041 µM | 0.0288 µM | 0.554 µM | 0.49 µM | 0.11 µM | 0.0977 µM |  |  |  |  |  |  |  |  |  |  | 
4 | CC(C)C[C@@H]1NC(=O)[C@H](CCC(N)=O)NC(=O)[C@@H](NC(=O)[C@H](Cc2ccc(O)cc2)NC(=O)[C@H](Cc2c[nH]cn2)NC(=O)[C@H](Cc2ccccc2)NC(=O)[C@@H](N)CC(C)C)CSSC[C@@H](C(=O)N[C@@H](CCC(N)=O)C(=O)N[C@@H](Cc2ccccc2)C(=O)N[C@@H](CCCCN)C(=O)N[C@@H](CC(C)C)C(=O)N[C@@H](CCCNC(=N)N)C(=O)N2CCC[C@H]2C(=O)N2CCC[C@H]2C(=O)O)NC(=O)[C@H](Cc2ccccc2)NC(=O)[C@H](CCCCN)NC(=O)CNC(=O)[C@H](CCCCN)NC(=O)[C@H](Cc2ccccc2)NC(=O)CNC(=O)[C@@H]2CCCN2C(=O)[C@@H]2CCCN2C(=O)[C@H](CC(C)C)NC(=O)[C@H](CCC(N)=O)NC1=O (H-LFHYCQLQLPPGFKGKFCQFKLRPP-OH; disulfide 5-18) |  | 0.0933 µM |  | 0.117 µM |  | 0.398 µM |  | 0.275 µM |  |  |  |  |  |  |  |  |  |  | 
5 | CC(C)C[C@H](NC(=O)[C@H](CCCCN)NC(=O)[C@H](Cc1ccccc1)NC(=O)[C@H](CCC(N)=O)NC(=O)[C@@H]1CSSC[C@H](NC(=O)[C@H](Cc2ccc(O)cc2)NC(=O)[C@H](Cc2c[nH]cn2)NC(=O)[C@H](Cc2ccccc2)NC(=O)[C@@H](N)CC(C)C)C(=O)N[C@@H](CCC(N)=O)C(=O)N[C@@H](CO)C(=O)N[C@@H](CCC(N)=O)C(=O)N[C@@H](CO)C(=O)N2CCC[C@H]2C(=O)N2CCC[C@H]2C(=O)NCC(=O)N[C@@H](Cc2ccccc2)C(=O)N[C@@H](CCCCN)C(=O)NCC(=O)N[C@@H](CCCCN)C(=O)N[C@@H](Cc2ccccc2)C(=O)N1)C(=O)N[C@@H](CCCNC(=N)N)C(=O)N1CCC[C@H]1C(=O)N1CCC[C@H]1C(=O)O (H-LFHYCQSQSPPGFKGKFCQFKLRPP-OH; disulfide 5-18) |  | 0.0676 µM |  | 0.229 µM |  | 0.776 µM |  | 0.224 µM |  |  |  |  |  |  |  |  |  |  | 
6 | CC(C)C[C@H](NC(=O)[C@H](CCCCN)NC(=O)[C@H](Cc1ccccc1)NC(=O)[C@H](CCC(N)=O)NC(=O)[C@@H]1CSSC[C@H](NC(=O)[C@H](Cc2ccc(O)cc2)NC(=O)[C@H](Cc2c[nH]cn2)NC(=O)[C@H](Cc2ccccc2)NC(=O)[C@@H](N)CC(C)C)C(=O)N[C@@H](CCC(N)=O)C(=O)N[C@@H](C(C)C)C(=O)N[C@@H](CCC(N)=O)C(=O)N[C@@H](C(C)C)C(=O)N2CCC[C@H]2C(=O)N2CCC[C@H]2C(=O)NCC(=O)N[C@@H](Cc2ccccc2)C(=O)N[C@@H](CCCCN)C(=O)NCC(=O)N[C@@H](CCCCN)C(=O)N[C@@H](Cc2ccccc2)C(=O)N1)C(=O)N[C@@H](CCCNC(=N)N)C(=O)N1CCC[C@H]1C(=O)N1CCC[C@H]1C(=O)O (H-LFHYCQVQVPPGFKGKFCQFKLRPP-OH; disulfide 5-18) |  | 0.0603 µM |  | 0.224 µM |  | 0.724 µM |  | 0.282 µM |  |  |  |  |  |  |  |  |  |  | 
7 | H-LFHYQQKQKPPGFKGKFQQFKLRPP-OH | 0.015 µM | 0.0135 µM | 0.195 µM | 0.182 µM | 0.197 µM | 0.182 µM | 0.041 µM | 0.0389 µM | Active | 32.3 µM | 33 µM | 3 | 3.8 µM | 28 µM | 3 µM | 6 µM | 77% | 13 | 13
